# Measured values reported in patent US8598182B2, “Insecticidal pyrimidinyl aryl hyrdrazones” (Dow AgroSciences, LLC., priority 2007, dated 2013).
# How the values were obtained:
# [1] = test system: Beet Armyworm (Spodoptera exigua); assay: Insecticidal diet-surface test for beet armyworm; type: in vivo; settings: second-instar beet armyworm, 50 ug/cm2 on diet surface, 5 days after treatment, dead insects of 8
# Protocol: (§1) The compounds identified in Table 1 were prepared using the procedures illustrated in the foregoing examples, and the compounds were tested against beet armyworm and corn earworm as follows:
# (§2) Insecticidal Test for Corn Earworm (Helicoverpa zea) and Beet Armyworm (Spodoptera exigua).
# (§3) To prepare test solution, the test compound was formulated at 2000 ppm solution as 4 mg/2 mL of 9 acetone:1 tap water. 50 μL of the 2000 ppm (equivalent to 50 ug/cm^2 dose on diet surface area) test solution was pipetted upon the surface of 1 mL of lepidopteran diet (Southland Multi-Species Lepidopteran Diet) contained in each of eight wells per insect species (one well=1 replication). A second-instar corn earworm and beet armyworm was placed upon the treated diet in each well once the solvent had air-dried. Trays containing the treated diet and larvae were covered and then held in a growth chamber at 25° C., 50-55% RH, and 16 hr light:8 hr dark for 5 days. Observation were conducted 5 days after treatment and infestation. The number of dead insects of 8 per species per treatment was then determined and the results are given in Table 1 as percent control at a dose of […].
# (§4) Keys to the table: Mass spectral data were obtained using liquid chromatography mass spectroscopy (LC-MS). The masses are detected using electrospray ionization (ESI) and reported as Mol Ion (M+H, M−H); AVG LAPHEG 50 refers to activity against beet army worm (Spodoptera exigua) as defined above; AVG HELIZE 50 refers to activity against corn ear worm (Helicoverpa zea) as described above.
# [2] = test system: Corn Earworm (Helicoverpa zea); assay: Insecticidal diet-surface test for corn earworm; type: in vivo; settings: second-instar corn earworm, 50 ug/cm2 on diet surface, 5 days after treatment, dead insects of 8
# Protocol: as §1, §2, §3, §4
SMILES,"LAPHEG 50 (ug/cm2), percent control [1] [%]","HELIZE 50 (ug/cm2), percent control [2] [%]"
"Fc1ccc(Nc2cc(Cl)nc(N/N=C/c3ccc(OC(F)(F)F)cc3)n2)cc1C(F)(F)F [Compound 1, (6-Chloro-2-{N′-[1-(4-trifluoromethoxyphenyl)-methylidene]-hydrazino}-pyrimidin-4-yl)-(4-fluoro-3-trifluoromethylphenyl)amine]",100,100
"CN(c1ccc(OC(F)(F)F)cc1)c1cc(C(F)(F)F)nc(N/N=C/c2ccc(OC(F)(F)F)cc2)n1 [Compound 2, Methyl-(4-trifluoromethoxyphenyl)-(2-{N′-[1-(4-trifluoromethoxy-phenyl)-methylidene]-hydrazino}-6-trifluoromethylpyrimidin-4-yl)amine]",0,50
"Fc1ccc(Nc2cc(N/N=C/c3ccc(OC(F)(F)F)cc3)nc(NCc3ccc(Cl)nc3)n2)cc1C(F)(F)F [Compound 3, N-[2-(6-Chloropyridin-3-ylmethyl)]-N-[4-(4-fluoro-3-trifluoromethylphenyl)]-6-{N′-[1-(4-trifluoromethoxyphenyl)-methylidene]-hydrazino}pyrimidine-2,4-diamine]",100,100
Fc1ccc(Nc2ccnc(N/N=C/c3ccc(OC(F)(F)C(F)F)cc3)n2)cc1C(F)(F)F [Compound 4],100,100
FC(F)C(F)(F)Oc1ccc(/C=N/Nc2nc(Cl)cc(Nc3ccc(OC(F)(F)C(F)F)cc3)n2)cc1 [Compound 5],100,88
FC(F)C(F)(F)Oc1ccc(Nc2cc(Cl)nc(N/N=C/c3ccc(OC(F)(F)F)cc3)n2)cc1 [Compound 6],100,100
FC(F)C(F)(F)Oc1ccc(Nc2cc(Cl)nc(N/N=C/c3cccc(OC(F)(F)C(F)F)c3)n2)cc1 [Compound 7],88,25
Fc1ccc(/C=N/Nc2nc(Cl)cc(Nc3ccc(OC(F)(F)C(F)F)cc3)n2)cc1C(F)(F)F [Compound 8],100,100
FC(F)C(F)(F)Oc1ccc(Nc2cc(Cl)nc(N/N=C/c3ccc4c(c3)OC(F)(F)O4)n2)cc1 [Compound 9],100,100
FC(F)C(F)(F)Oc1ccc(Nc2cc(Cl)nc(N/N=C/c3ccc(Cl)cc3)n2)cc1 [Compound 10],63,88
Fc1ccc(Nc2cc(Cl)nc(N/N=C/c3ccc(Cl)cc3)n2)cc1C(F)(F)F [Compound 11],100,100
Fc1cnc(N/N=C/c2ccc(Br)cc2)nc1Nc1ccc(OC(F)(F)F)cc1 [Compound 12],0,100
Fc1cnc(N/N=C/c2ccc(OC(F)(F)F)cc2)nc1Nc1ccc(OC(F)(F)F)cc1 [Compound 13],0,100
Fc1cnc(N/N=C/c2ccc(OC(F)(F)C(F)F)cc2)nc1Nc1ccc(OC(F)(F)F)cc1 [Compound 14],0,88
Fc1cnc(N/N=C/c2cccc(OC(F)(F)F)c2)nc1Nc1ccc(OC(F)(F)F)cc1 [Compound 15],0,75
Fc1cnc(N/N=C/c2ccc(Cl)cc2)nc1Nc1ccc(OC(F)(F)F)cc1 [Compound 16],100,100
Fc1cc(Nc2ccc(F)c(C(F)(F)F)c2)nc(NN=Cc2ccc(OC(F)(F)F)cc2)n1 [Compound 17],100,100
Fc1cc(Nc2ccc(F)c(C(F)(F)F)c2)nc(NN=Cc2ccc(OC(F)(F)C(F)F)cc2)n1 [Compound 18],100,100
